Experimental data published in publication PMC6151468, “Efficacy of Bioactive Cyclic Peptides in Rheumatoid Arthritis: Translation from In Vitro to In Vivo Models” (Molecules : A Journal of Synthetic Chemistry and Natural …, 2017).

System: Collagen Antibody-Induced Arthritis (CAIA) model
Experiment: CAIA model in mice, first study
Type: in vivo
Conditions: ten-day period; Humira 10 mg/kg bolus day 1; Lex 5.2 0.32 mg/kg/day i.p.; compared with stimulated untreated animals; Figure 11
From the text: In light of the ability of cyclic peptides to alter the behaviour of macrophages, down-regulating TNF secretion both in vitro and in vivo, the investigation was extended to examine whether such peptides could have an impact on inflammatory diseases such as rheumatoid arthritis, where activation of macrophages, and secretion of TNF, is an important component. The CAIA model was chosen, as its use of lipopolysaccharide as one of the stimulants mirrors the models already employed. The other inducer of inflammation is a cocktail of anti-collagen antibodies, which are agents thought to contribute to disease in the human condition. A scheme of the experimental design is shown in Figure 8, and detailed methodology is provided in the Materials and Methods section of this article. […]
A range of different parameters was measured, as follows: (i) clinical score—a subjective assessment of the number of joints in each paw affected; (ii) paw thickness—measurement of oedema in the paws, reflecting the severity of inflammation; (iii) TNF levels—rise in the bloodstream immediately after LPS administration; (iv) weight change—loss of weight resulting from inflammation. […]

adalimumab [Humira]
Change in weight: much reduced
